Here are results for 34 compounds from patent publication US7659277B2, “Ubiquitin ligase inhibitors and methods related thereto” (Proteologies, Ltd., priority 2003, dated 2010).

Holding throughout (assay type): biochemical
One assay has as its target T1, POSH (Homo sapiens, UniProt Q7Z6J0).
T1 construct: GST-POSH lot NB81/p.118 3.6 mg/ml; fused on or other part: GST tag, used for detection with anti-GST XL665
T1 sequence (Q7Z6J0 1-269 limits assumed): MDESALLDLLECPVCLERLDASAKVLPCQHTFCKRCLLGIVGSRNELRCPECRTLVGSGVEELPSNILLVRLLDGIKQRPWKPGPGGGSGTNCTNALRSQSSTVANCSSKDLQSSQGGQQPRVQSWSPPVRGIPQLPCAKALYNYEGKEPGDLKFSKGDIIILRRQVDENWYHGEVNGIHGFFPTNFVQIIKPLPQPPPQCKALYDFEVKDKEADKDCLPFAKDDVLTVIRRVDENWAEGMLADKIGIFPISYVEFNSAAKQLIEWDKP
The assay is described as follows: Selectivity (% A in 1 μM), ubiquitin ligase activity of POSH. The following applies: % activity at 1 μM compound; control is related to 100% activity; HTS protocol; read-out: Selectivity (% A* in 1 μM) POSH. Here is the method:
Experimental Protocols: 1. HTS Screening Assay Procedure • Microplates 10109D to 10114D compounds at 1 mM. • (Controls in column 1). • All compounds were perchase from ChemBridge corporation: ChemBridge corporation 16981 Via Tazon, Suite G San Diego, Calif. 92127 a. Microplates Labeling • Put labels to 6 PS U-bottom clear microplate. • Put labels to 18 black microplates (triplicats). b. Microplates Preparation • Put 100 μl GST-POSH at 33 nM in wells of the clear PS U-bottom microplates (exept wells A1-D1). • Negative control: place 100 μl dH2O in wells A1-D1. • (Positive control: place 100 μl GST-POSH at 33 nM in wells E1-H1). • Put 8 μl enzymes solution ×4 to black microplates (column 1 to 11). c. Incubation of E3 with Compounds • Transfer 5 μl of compounds (at 1 mM) to the microplates containing 100 μl GST-POSH. • Add 5 μl of DMSO to controls column 1. • Incubation 30 minutes at RT. d. […] 2. […] Microplates Labeling • Put labels to 4 clear PP clear microplate (18.2 μM, 9.1 uM, 1.82 uM, 910 nM,). • Put labels to 5 clear PS U-bottom clear microplate 4.44 μM, 909, 444, 91 and 44 nM) • Put labels to 15 black microplates (triplicates). f. Original Microplate Dilutions • Put DMSO 40 μl to (18.2 μM, 1.82 uM plates) and 20 ul to (9.1 uM, 910 nM plates. • Mix by pipetation the original microplate (3× up and down 45 μl). • Transfer 10 μl of compounds from the original microplate (at 91 μM) to the next microplate (=18.2 μM) on splitting apparatus. • Mix by pipetation the 18.2 uM microplate (3× up and down 45 μl). • Transfer 20 μl of compounds from the 18.2 uM microplate to the next microplate (=9.1 μM) on splitting apparatus. • Mix by pipetation the 9.1 uM microplate (3× up and down 45 μl). • Transfer 10 μl of compounds from the 9.1 uM microplate to the next microplate (=1.82 μM) on splitting apparatus. • Mix by pipetation the 1.82 uM microplate (3× up and down 45 μl). • Transfer 20 μl of compounds from the 1.82 uM microplate to the next microplate (=910 nM) on splitting apparatus • Mix by pipetation. g. Microplates Preparation • Put 123 μl GST-POSH at 33 nM in wells of the 5 clear PS U-bottom clear microplates. • Positive control: place 123 μl GST-POSH at 33 nM in well A12-h12 13 μl DMSO. • Negative control: place 123 μl dH2O in well B1 and 13 μl DMSO. • Put 8 μl enzymes solution ×4 to 15 black microplates. • Controls: put 8 μl enzymes solution ×4 to wells A1 to F1. h. Incubation of POSH with Compounds • Take 7 μl of compounds at original plate (91 μM) and put into the 4.44 μM labeled microplate containing 123 μl GST-POSH, on splitting apparatus. • Mix by pipetation (3× up and down 115 μl), note time. • Take 7 μl of compounds at 18.2 μM and put into the 910 nM labeled microplate containing 123 μl GST-POSH, on splitting apparatus. • Mix by pipetation (3× up and down 115 μl), note time. • Take 7 μl of compounds at 9.1 μM and put into the 444 nM labeled microplate containing 123 μl GST-POSH, on splitting apparatus. • Mix by pipetation (3× up and down 115 μl), note time. • Take 7 μl of compounds at […] and put into the 91 nM labeled microplate containing 123 μl GST-POSH, on splitting apparatus. • Mix by pipetation (3× up and down 115 μl), note time. • Take 7 μl of compounds at 91.0 nM and put into the 44 nM labeled microplate containing 123 μl GST-POSH, on splitting apparatus. • Mix by pipetation (3× up and down 115 μl), note time. • Incubation 30 minutes at RT. i.

The subject of the next assay is E2 protein. The settings on record: % activity at 1 μM compound; control is related to 100% activity; HTS protocol.
For the next assay, the target named is c-cbl (Homo sapiens, UniProt P22681). Nature of the assay: Selectivity (% A in 1 μM), ubiquitin ligase activity of c-cbl. The following applies: % activity at 1 μM compound; control is related to 100% activity; HTS protocol.

`O=C1NC(=O)N(c2ccc(Br)cc2)C(=O)/C1=C/c1ccc(O)cc1` [Compound 5]: the remaining activity at 1 µM on POSH worked out at 13%.
Turning to `O=C1NC(=S)N(c2ccccc2)C(=O)/C1=C\c1c(Cl)cccc1Cl` [Compound 6], the remaining activity at 1 µM on POSH was 14%.
As for `COc1ccc(N2C(=O)NC(=O)/C(=C\c3ccc(Cl)cc3)C2=O)cc1` [Compound 7], the remaining activity at 1 µM at POSH turned out to be 108%.
Still for that read-out and setting: the figure for `COc1cc(C=C2C(=O)N(C)C(=S)N(C)C2=O)ccc1O` [Compound 9] is 91%; for `COc1ccccc1N1C(=O)NC(=O)/C(=C\C=C\c2ccccc2)C1=O` [Compound 10] it is 15%; for `COc1ccc(/C=C2\C(=O)NC(=S)N(c3ccccc3)C2=O)cc1` [Compound 11] it is 21%.
For `C=CCN1C(=O)NC(=O)/C(=C/c2ccc(F)cc2)C1=O` [Compound 12], at POSH, the remaining activity at 1 µM worked out at 54%.
On to `O=C1C(=Cc2ccco2)C(=O)N(c2ccccc2)C(=S)N1c1ccccc1` [Compound 13], for which the remaining activity at 1 µM at POSH turned out to be 7%.
For `COc1cc(N/C=C2/C(=O)NC(=S)N(c3cccc(C)c3)C2=O)cc(OC)c1` [Compound 16], at POSH, the remaining activity at 1 µM is 51%.
As for `COc1cc(N/C=C2/C(=O)NC(=S)N(c3ccc(F)cc3)C2=O)cc(OC)c1` [Compound 17], at POSH, the remaining activity at 1 µM is 71%.
On to `COC(=O)c1ccc(N2C(=O)c3cccc(N)c3C2=O)cc1` [Compound 21], for which, in the assay on E2 protein, the “Selectivity (% A* in 1 μM) E2” value stood at 75%. For the same compound, the results for the remaining activity at 1 µM on POSH and at c-cbl were 83% and 91%, respectively.
Turning to `O=C1CC(NNc2ccccc2)C(=O)N1c1cccc(Cl)c1` (stereo not drawn) [Compound 22], the “Selectivity (% A* in 1 μM) E2” value in the assay on E2 protein came to 91%. Moreover, the remaining activity at 1 µM was 26% at POSH and 64% at c-cbl.
The matching figures for `O=C1C=CC(=O)N1c1cc(Cl)cc(Cl)c1` [Compound 23]: 112%, 9% and 102%.
As to `O=C1\C(=C/C=C/C=C/Nc2ccccc2)SC(=S)N1c1ccccc1` [Compound 24], in the assay with E2 protein, the “Selectivity (% A* in 1 μM) E2” value came to 87%. Also, the remaining activity at 1 µM on POSH stood at 7%; on c-cbl it was 90%.
Consider `CC(C)Oc1ccc(/C=C2/SC(=S)NC2=O)cc1` [Compound 26], for which the “Selectivity (% A* in 1 μM) E2” value in the assay with E2 protein is on record as 61%. For the same compound, the values for the remaining activity at 1 µM on POSH and on c-cbl were 69% and 85%, respectively.
For the compound `CC(=C\c1ccccc1)/C=C1/SC(=N)NC1=O` [Compound 31], the “Selectivity (% A* in 1 μM) E2” value in the assay on E2 protein came to 104%. Also, the remaining activity at 1 µM on POSH came to 105%; on c-cbl, 108%.
In the same order, the values of `COc1cc(/C=C2\SC(=O)NC2=O)ccc1OCc1ccc(Cl)cc1Cl` [Compound 34] are 93%, 23% and 135%.
As to `O=C1N=C(c2ccccc2)S/C1=C/c1ccc(-c2cccc([N+](=O)[O-])c2)o1` [Compound 36], in the assay on E2 protein, the “Selectivity (% A* in 1 μM) E2” value was found to be 82%. In addition, the values for the remaining activity at 1 µM on POSH and on c-cbl were 6% and 86%, respectively.
With `N/N=C\c1ccc(-c2cccs2)s1` [Compound 37], the “Selectivity (% A* in 1 μM) E2” value with E2 protein is recorded as 97%. Moreover, the remaining activity at 1 µM was 41% at POSH and 93% on c-cbl.
On to `O=c1nc(C(F)(F)F)cc(/C=C/c2ccc(-c3ccc(Br)cc3)o2)[nH]1` [Compound 39], for which, in the assay with E2 protein, the “Selectivity (% A* in 1 μM) E2” value is given as 98%. The figures for the remaining activity at 1 µM at POSH and on c-cbl were 29% and 132%, respectively.
Take `O=c1oc2cc(O)ccc2cc1-c1csc(-c2ccc(Cl)cc2)n1` [Compound 40]: in the assay on E2 protein, the “Selectivity (% A* in 1 μM) E2” value is 117%. Moreover, the remaining activity at 1 µM on POSH came out at 24%; at c-cbl, 95%.
Turning to `O=C1N=C(c2ccccc2)S/C1=C/c1ccc2ccccc2c1` [Compound 41], in the assay on E2 protein, the “Selectivity (% A* in 1 μM) E2” value was 82%. The remaining activity at 1 µM on POSH stood at 17%; on c-cbl, 141%.
On to `COc1ccccc1/C=C1\N=C(c2ccccc2Cl)OC1=O` [Compound 49], for which the “Selectivity (% A* in 1 μM) E2” value in the assay with E2 protein is 43%. Further, the remaining activity at 1 µM on POSH worked out at 77%; at c-cbl it was 127%.
As to `O=C1/C(=C\c2ccc(Cl)c([N+](=O)[O-])c2)Sc2ccccc21` [Compound 50], the “Selectivity (% A* in 1 μM) E2” value in the assay on E2 protein is recorded as 103%. Also, the remaining activity at 1 µM on POSH amounted to 39%; at c-cbl, 155%.
Consider `O=c1/c(=C/c2cccc([N+](=O)[O-])c2O)sc2nc3ccccc3n12` [Compound 51], for which, in the assay with E2 protein, the “Selectivity (% A* in 1 μM) E2” value was determined as 113%. Further, the remaining activity at 1 µM on POSH was 51%; at c-cbl, 104%.
The matching figures for `O=C1/C(=C\c2cccc([N+](=O)[O-])c2)Sc2ccccc21` [Compound 52]: 63%, 80% and 124%.
On to `Oc1c(Br)cc(Cl)cc1/C=N/c1ccccc1Br` [Compound 58], for which, in the assay on E2 protein, the “Selectivity (% A* in 1 μM) E2” value was 108%. The remaining activity at 1 µM amounted to 40% on POSH and 115% at c-cbl.
As for `O=[N+]([O-])c1ccc(-c2ccc(/N=C/c3c(O)ccc4ccccc34)cc2)cc1` [Compound 60], the “Selectivity (% A* in 1 μM) E2” value in the assay on E2 protein is 53%. The remaining activity at 1 µM at POSH was found to be 22%; at c-cbl, 110%.
Take `Oc1c(Br)cc(Br)cc1/C=N/c1ccc(Br)cn1` [Compound 61]: the “Selectivity (% A* in 1 μM) E2” value in the assay on E2 protein was 52%. The remaining activity at 1 µM was found to be 35% at POSH and 133% on c-cbl.
Regarding `Oc1c(Br)cc(Br)cc1/C=N/c1nc2ccccc2s1` [Compound 62], the “Selectivity (% A* in 1 μM) E2” value in the assay on E2 protein was 94%. Further, the remaining activity at 1 µM worked out at 37% on POSH and 134% on c-cbl.
For `Oc1c(Cl)cc(Cl)cc1/C=N/c1ccc(-c2nc3ccccc3[nH]2)cc1` [Compound 63], in the assay with E2 protein, the “Selectivity (% A* in 1 μM) E2” value is listed as 109%. The remaining activity at 1 µM at POSH is 30%; at c-cbl it was 95%.
Take `Oc1c(Br)cc(Cl)cc1/C=N/c1ccccn1` [Compound 64]: the “Selectivity (% A* in 1 μM) E2” value in the assay with E2 protein is reported as 117%. Moreover, the results for the remaining activity at 1 µM on POSH and at c-cbl were 63% and 118%, respectively.
As for `COc1ccc(CC(C)NCc2ccccc2Cl)cc1` (stereo not drawn) [Compound 107], the remaining activity at 1 µM at POSH was 68%.
As for `O=C1NC(=O)/C(=C\c2ccc(-c3ccc(F)cc3)o2)S1` [Compound 108], at POSH, the remaining activity at 1 µM is 42%.
